Tested on: sAPPβ release in SH-SY5Y cells
Experiment: sAPPβ Release Assay
Type: cell-based
Details: Homo sapiens, 17 h
Description: Thaw cells and seed at a conc. of around 10000 cells/well in DMEM/F-12 with Glutamax, 10% FCS and 1% non-essential amino acids to a 384-well tissue culture treated plate, […] cell susp/well. The cell plates were then incubated for 7-24 h at 37° C., 5% CO2. The cell medium was removed, followed by addition of 30 μL compound diluted in DMEM/F-12 with Glutamax, 10% FCS, 1% non-essential amino acids and 1% PeSt to a final conc. of 1% DMSO. […] Meso Scale Discovery (MSD) plates were used for the detection of sAPPβ release. MSD sAPPβ plates were blocked in 1% BSA in Tris wash buffer (40 μL/well) for 1 h on shake at r.t. and washed 1 time in Tris wash buffer (40 μL/well). 20 μL of medium was transferred to the pre-blocked and washed MSD sAPPβ microplates, and the cell plates were further used in an ATP assay to measure cytotoxicity. The MSD plates were incubated with shaking at r.t. for 2 h and the media discarded. 10 μL detection antibody was added (1 nM) per well followed by incubation with shaking at r.t. for 2 h and then discarded. 40 μL Read Buffer was added per well and the plates were read in a SECTOR Imager.

- IC50: 100 pM
Compound: CC#Cc1cncc(-c2ccc3c(c2)[C@@]2(N=C(C)C(N)=N2)[C@]2(CC[C@H](OC)CC2)C3)c1 [(1r,1′R,4R)-4-methoxy-5″-methyl-6′-[5-(prop-1-yn-1-yl)pyridin-3-yl]-3′H-dispiro[cyclohexane-1,2′-indene-1′2″-imidazol]-4″-amine]

Source: patent US20190262327A1, “COMBINATION OF A BACE INHIBITOR AND AN ANTIBODY OR ANTIGEN-BINDING FRAGMENT FOR THE TREATMENT OF A DISORDER ASSOCIATED WITH THE ACCUMULATION OF AMYLOID BETA” (ASTRAZENECA AB, priority 2016, published 2019)
